Assay results reported in patent publication US20040059104A1, “Nucleotide mimics and their prodrugs” (priority 2002, published 2004).
Read-outs that look alike come from different tables or passages of the source.

Legend:
[1] = Mammalian cell growth inhibition assay (MTT cytotoxicity); format: cell-based, Human; conditions: human; CCRF-CEM cells, 72 hr, MTT; read-out: Cytotoxicity IC50 (antiproliferative effect)
Procedure: (§1) The assays employed for determining the cytotoxicity of the nucleotide mimics of the present invention to mammalian cells are described below.
(§2) Human CCRF-CEM cells were obtained from American Tissue Culture Collection (ATCC) and grown according to ATCC specifications. […] CEM cells were grown at 37° C. in a 95% humidified environment and 5% CO2 atmosphere.
(§3) MTT is water soluble tetrazolin salt that is converted to an insoluble purple formazan by active mitochondrial dehydrogenases of living cells. […] Conversion of MTT into the insoluble formazan by non-treated control or treated cells was monitored at 540 nm.
(§4) CCRF-CEM cells (3×10^4) were plated in 96-well plates in RPMI media. The next day, cells were incubated with different concentrations (0-200 μM) of the nucleotide mimics of the present invention for 72 hr. Following treatment, MTT (2 mg/ml in PBS) dye was added to each well so that the final concentration was 0.5 mg/ml and then incubated for 4 hr at 37° C. Media and MTT dye were removed without disturbing the cells and 100% DMSO was added to dissolve the precipitate. After a 10 minute incubation at room temperature, the optical density values were measured at 540 nm, using the Spectra Max Plus plate reader. Survival was expressed as the percentage of viable cells in treated samples relative to non-treated control cells.

in vitro = conditions: bovine, serum, Half-Life, Serum Half-Lives of Gemcitibine Diphosphate Mimics and Their Prodrugs
Staphylococcus aureus = assay: Antimicrobial assay, minimal inhibitory concentration; format: cell-based; conditions: Staphylococcus aureus, read-out: S. aureus MIC
Outline: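 E. coli and S. aureus grown overnight at 37° C were first screened by disc diffusion on Nutrient Broth agar lawns. MIC was then read after overnight incubation at 37° C as the lowest compound concentration giving no increase in absorbance at 600 nm.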

CCRF-CEM cells = assay: Mammalian cell growth inhibition assay (MTT cytotoxicity); format: cell-based, Human
Procedure: as §1, §2, §3, §4

half-life at 500 μM (in vitro) [min] | MIC (Staphylococcus aureus; overnight at 37° C., tested 0-200 μg/ml, NA = Not active) [µg/mL] | MIC (Staphylococcus aureus; value in brackets beside the μg/ml value) [µM] | SMILES | IC50 at 72 h [1] [nM] | IC50 (CCRF-CEM cells) [nM]
> 2880 | > 200 | > 475 | Nc1ccn([C@@H]2O[C@H](COP(=O)(O)CP(=O)(O)O)[C@@H](O)C2(F)F)c(=O)n1 [Compound 5, 2′-Deoxy-2′,2′-difluorocytidine-5′-methylenediphosphonate] | 4800 | –
– | – | – | Nc1ccn([C@@H]2O[C@H](CO)[C@@H](O)C2(F)F)c(=O)n1 [Gemcitabine, 2′-deoxy-2′,2′-difluorocytidine, reference compound] | 35 | –
– | – | – | CC(C)(C)C(=O)SCCOP(=O)(CP(=O)(OCCSC(=O)C(C)(C)C)OCC1OC(n2ccc(N)nc2=O)C(F)(F)C1O)OCCSC(=O)C(C)(C)C (stereo not drawn) [Compound 77, 2′-deoxy-2′,2′-difluorocytidine 5′-tri-O—(S-pivaloyl-2-thioethyl)-α,β-methylenediphosphonate] | – | 100
